Test results taken from patent US6350764B2, “Heteroaryl aminoguanidines and alkoxyguanidines and their use as protease inhibitors” (3-Dimensional Pharmaceuticals, Inc., priority 1997, dated 2002).
Counter-ions that a name gives are not always drawn.

Legend:
Format in all cases: biochemical
human α-thrombin = molecular target: T1, human α-thrombin (Homo sapiens, UniProt P00734); experiment: In vitro inhibition of purified enzymes: thrombin, hydrolysis of N-succinyl-Ala-Ala-Pro-Arg-p-nitroanilide; conditions: 37° C., pH 7.5
T1 construct: Purified human a-thrombin was diluted into assay buffer; purchased Enzyme Research Laboratories (South Bend)
Text: (§1) Reagents: All buffer salts were obtained from Sigma Chemical Company (St. Louis, Mo.), and were of the highest purity available. The enzyme substrates, N-benzoyl-Phe-Val-Arg-p-nitroaniide (Sigma B7632) N-benzoyl-Ile-Glu-Gly-Arg-p-nitroanilide hydrochloride (Sigma B2291), N-p-Tosyl-Gly-Pro-Lys-p-nitroanilide (Sigma T6140), N-succinyl-Ala-Ala-Pro-Phe-p-nitroanilide (Sigma S7388) and N-CBZ-Val-Gly-Arg-p-nitroanilide (Sigma C7271) were obtained from Sigma.
(§2) Human α-thrombin, human factor Xa and human plasmin were obtained from Enzyme Research Laboratories (South Bend, Id.). Bovine α-chymotrypsin (Sigma C4129), bovine trypsin (Sigma T8642) and human kidney cell urokinase (Sigma U5004) were obtained from Sigma. Human leukocyte elastase was obtained from Elastin Products (Pacific, Mo.).
Ki Determinations: All assays are based on the ability of the test compound to inhibit the enzyme catalyzed hydrolysis of a peptide p-nitroanilide substrate. […] The final concentrations for each of the substrates is listed below. In general, substrate concentrations are lower than the experimentally determined value for Km. Test compounds are prepared as a 1.0 mg/ml solution in DMSO. Dilutions are prepared in DMSO yielding 8 final concentrations encompassing a 200 fold concentration range. Enzyme solutions are prepared at the concentrations listed below in assay buffer.
(§3) Reactions were initiated by the addition of a […] aliquot of enzyme and the absorbance increase at 405 nm is recorded for 15 minutes. Data corresponding to less than 10% of the total substrate hydrolysis were used in the calculations. The ratio of the velocity (rate of change in absorbance as a function of time) for a sample containing no test compound is divided by the velocity of a sample containing test compound, and is plotted as a function of test compound concentration. The data are fit to a linear regression, and the value of the slope of the line calculated. The inverse of the slope is the experimentally determined Ki value.
Thrombin: Thrombin activity was assessed as the ability to hydrolyze the substrate N-succinyl-Ala-Ala-Pro-Arg-p-nitroanilide. […] Final reagent concentrations were: [thrombin]=0.5 nM, [substrate N-succinyl-Ala-Ala-Pro-Arg-p-nitroanilide]=32 mM.

human factor Xa = molecular target: T2, human factor Xa (Homo sapiens, UniProt P00742); experiment: In vitro inhibition of purified enzymes: Factor X [FXa], hydrolysis of N-benzoyl-Ile-Glu-Gly-Arg-p-nitroanilide; conditions: 37° C., pH 7.5
T2 construct: purchased Enzyme Research Laboratories (South Bend)
Text: as §1, with “Sigma. N-succinyl-Ala-Ala-Pro-Arg-p-nitroanilide (BACHEM L-1720) and N-succinyl-Ala-Ala-Pro-Val-p-nitroanilide (BACHEM L-1770) were obtained from BACHEM (King of Prussia, Pa.).” for “Sigma.”
as §2
(§4) Ki Determinations: All assays are based on the ability of the test compound to inhibit the enzyme catalyzed hydrolysis of a peptide p-nitroanilide substrate. In atypical Ki determination, substrate is prepared in DMSO, and diluted into an assay buffer consisting of 50 mM HEPES, 200 mM NaCl, pH 7.5. The final concentrations for each of the substrates is listed below. In general, substrate concentrations are lower than the experimentally determined value for Km. Test compounds are prepared as a 1.0 mg/ml solution in DMSO. Dilutions are prepared in DMSO yielding 8 final concentrations encompassing a 200 fold concentration range. Enzyme solutions are prepared at the concentrations listed below in assay buffer.
as §3, with “In a typical Ki determination, into each well of a 96 well plate is pipetted […] of substrate solution, […] of test compound solution, and the plate allowed to thermally equilibrate at 37° C. in a Molecular Devices plate reader for>15 minutes. Reactions” for “Reactions”
Factor X [FXa]: FXa activity was assessed as the ability to hydrolyze the substrate N-benzoyl-Ile-Glu-Gly-Arg-p-nitroanilide hydrochloride. […] Final DMSO concentration was 4.3%. Purified activated human Factor X was diluted into assay buffer to a concentration of 300 nM. Final reagent concentrations were: [FXa]=10 nM, [N-benzoyl-Ile-Glu-Gly-Arg-p-nitroanilide hydrochloride]=51 mM.

bovine α-chymotrypsin = molecular target: T3, bovine α-chymotrypsin (Bos taurus, UniProt P00766); experiment: In vitro inhibition of purified enzymes: chymotrypsin, hydrolysis of N-succinyl-Ala-Ala-Pro-Phe-p-nitroanilide; conditions: read-out: % Inhibition Chymo.
T3 construct: Bovine α-chymotrypsin (Sigma C4129); purchased Sigma C4129
Text: as §1, with “Sigma. N-succinyl-Ala-Ala-Pro-Arg-p-nitroanilide (BACHEM L-1720) and N-succinyl-Ala-Ala-Pro-Val-p-nitroanilide (BACHEM L-1770) were obtained from BACHEM (King of Prussia, Pa.).” for “Sigma.”
as §2, §4
as §3, with “In a typical Ki determination, into each well of a 96 well plate is pipetted […] of substrate solution, […] of test compound solution, and the plate allowed to thermally equilibrate at 37° C. in a Molecular Devices plate reader for>15 minutes. Reactions” for “Reactions”
Chymotrypsin: Chymotrypsin activity was assessed as the ability to hydrolyze N-succinyl-Ala-Ala-Pro-Phe-p-nitroanilide. […] Final DMSO concentration was 4.3%. Purified bovine chymotrypsin was diluted into assay buffer to a concentration of 81 nM. Final reagent concentrations were: [Chymotrypsin]=2.7 nM, [N-succinyl-Ala-Ala-Pro-Phe-p-nitroanilide]=14 mM.

human leukocyte elastase = molecular target: T4, human leukocyte elastase (Homo sapiens, UniProt P08246); experiment: In vitro inhibition of purified enzymes: elastase, hydrolysis of N-succinyl-Ala-Ala-Pro-Val-p-nitroanilide
T4 construct: purchased Elastin Products (Pacific, Mo.)
T4 sequence (P08246 30-247 limits assumed): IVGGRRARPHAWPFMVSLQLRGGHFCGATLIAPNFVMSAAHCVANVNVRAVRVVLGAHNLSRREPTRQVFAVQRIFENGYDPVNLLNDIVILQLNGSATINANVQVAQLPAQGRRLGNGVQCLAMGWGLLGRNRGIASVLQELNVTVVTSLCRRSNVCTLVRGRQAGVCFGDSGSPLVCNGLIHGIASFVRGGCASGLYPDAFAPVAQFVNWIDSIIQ
Text: as §1, with “Sigma. N-succinyl-Ala-Ala-Pro-Arg-p-nitroanilide (BACHEM L-1720) and N-succinyl-Ala-Ala-Pro-Val-p-nitroanilide (BACHEM L-1770) were obtained from BACHEM (King of Prussia, Pa.).” for “Sigma.”
as §2, §4
as §3, with “In a typical Ki determination, into each well of a 96 well plate is pipetted […] of substrate solution, […] of test compound solution, and the plate allowed to thermally equilibrate at 37° C. in a Molecular Devices plate reader for>15 minutes. Reactions” for “Reactions”
Elastase: Elastase activity was assessed as the ability to hydrolyze N-succinyl-Ala-Ala-Pro-Val-p-nitroanilide. Substrate solutions were prepared at a concentration of 19 mM (19 mM<<Km=89 mM) in assay buffer. Final DMSO concentration was 4.3%. Purified human leukocyte elastase was diluted into assay buffer to a concentration of 750 nM. Final reagent concentrations were: [Elastase]=25 nM, [N-succinyl-Ala-Ala-Pro-Val-p-nitroanilide]=19 mM.

human plasmin = molecular target: T5, human plasmin (Homo sapiens, UniProt P00747); experiment: In vitro inhibition of purified enzymes: plasmin, hydrolysis of N-p-Tosyl-Gly-Pro-Lys-p-nitroanilide
T5 construct: Purified human plasmin was diluted into assay buffer; purchased Enzyme Research Laboratories (South Bend)
Text: as §1, with “Sigma. N-succinyl-Ala-Ala-Pro-Arg-p-nitroanilide (BACHEM L-1720) and N-succinyl-Ala-Ala-Pro-Val-p-nitroanilide (BACHEM L-1770) were obtained from BACHEM (King of Prussia, Pa.).” for “Sigma.”
as §2, §4
as §3, with “In a typical Ki determination, into each well of a 96 well plate is pipetted […] of substrate solution, […] of test compound solution, and the plate allowed to thermally equilibrate at 37° C. in a Molecular Devices plate reader for>15 minutes. Reactions” for “Reactions”
Plasmin: Plasmin activity was assessed as the ability to hydrolyze the N-p-Tosyl-Gly-Pro-Lys-p-nitroanilide. Substrate solutions were prepared at a concentration of 37 mM (37 mM<<Km=243 mM) in assay buffer. Final DMSO concentration was 4.3%. Purified human plasmin was diluted into assay buffer to a concentration of 240 nM. Final reagent concentrations were: [Plasmin]=8 nM, [N-p-Tosyl-Gly-Pro-Lys-p-nitroanilide]=37 mM.

bovine trypsin = molecular target: T6, bovine trypsin (Bos taurus, UniProt P00760); experiment: In vitro inhibition of purified enzymes: trypsin, hydrolysis of N-benzoyl-Phe-Val-Arg-p-nitroanilide
T6 construct: Purified bovine trypsin was diluted into assay buffer; purchased Sigma T8642
T6 sequence (P00760 24-246): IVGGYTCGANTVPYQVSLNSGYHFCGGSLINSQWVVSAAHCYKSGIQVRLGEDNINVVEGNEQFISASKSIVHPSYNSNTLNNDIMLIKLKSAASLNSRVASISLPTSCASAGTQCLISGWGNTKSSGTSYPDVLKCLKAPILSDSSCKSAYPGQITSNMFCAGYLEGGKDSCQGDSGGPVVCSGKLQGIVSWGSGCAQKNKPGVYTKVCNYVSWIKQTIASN
Text: as §1, with “Sigma. N-succinyl-Ala-Ala-Pro-Arg-p-nitroanilide (BACHEM L-1720) and N-succinyl-Ala-Ala-Pro-Val-p-nitroanilide (BACHEM L-1770) were obtained from BACHEM (King of Prussia, Pa.).” for “Sigma.”
as §2, §4
as §3, with “In a typical Ki determination, into each well of a 96 well plate is pipetted […] of substrate solution, […] of test compound solution, and the plate allowed to thermally equilibrate at 37° C. in a Molecular Devices plate reader for>15 minutes. Reactions” for “Reactions”
Trypsin: Trypsin activity was assessed as the ability to hydrolyze N-benzoyl-Phe-Val-Arg-p-nitroanilide. […] Final DMSO concentration was 4.3%. Purified bovine trypsin was diluted into assay buffer to a concentration of 120 nM. Final reagent concentrations were: [Trypsin]=4 nM, [N-benzoyl-Phe-Val-Arg-p-nitroanilide]=13 mM.

T2 sequence (P00742 235-488 limits assumed): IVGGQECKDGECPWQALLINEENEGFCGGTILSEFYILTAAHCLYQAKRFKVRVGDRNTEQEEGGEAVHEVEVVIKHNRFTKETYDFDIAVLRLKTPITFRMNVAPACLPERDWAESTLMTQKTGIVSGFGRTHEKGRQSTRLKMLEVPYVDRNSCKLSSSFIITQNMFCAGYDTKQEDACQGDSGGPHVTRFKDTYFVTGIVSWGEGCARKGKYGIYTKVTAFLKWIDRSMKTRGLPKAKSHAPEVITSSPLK
T2 sequence (P00742 41-179 partner limits assumed): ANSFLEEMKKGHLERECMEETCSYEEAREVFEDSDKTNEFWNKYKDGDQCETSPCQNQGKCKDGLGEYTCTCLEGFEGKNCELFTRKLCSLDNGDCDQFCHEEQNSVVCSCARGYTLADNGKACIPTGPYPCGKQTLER
T5 sequence (P00747 581-810 limits assumed): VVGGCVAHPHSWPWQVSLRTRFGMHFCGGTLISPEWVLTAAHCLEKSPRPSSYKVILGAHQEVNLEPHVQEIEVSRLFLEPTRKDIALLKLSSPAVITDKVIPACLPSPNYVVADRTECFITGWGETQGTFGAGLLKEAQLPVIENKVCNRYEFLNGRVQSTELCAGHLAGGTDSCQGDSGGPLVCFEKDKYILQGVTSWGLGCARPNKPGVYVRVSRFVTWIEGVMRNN
T5 sequence (P00747 97-580 partner limits assumed): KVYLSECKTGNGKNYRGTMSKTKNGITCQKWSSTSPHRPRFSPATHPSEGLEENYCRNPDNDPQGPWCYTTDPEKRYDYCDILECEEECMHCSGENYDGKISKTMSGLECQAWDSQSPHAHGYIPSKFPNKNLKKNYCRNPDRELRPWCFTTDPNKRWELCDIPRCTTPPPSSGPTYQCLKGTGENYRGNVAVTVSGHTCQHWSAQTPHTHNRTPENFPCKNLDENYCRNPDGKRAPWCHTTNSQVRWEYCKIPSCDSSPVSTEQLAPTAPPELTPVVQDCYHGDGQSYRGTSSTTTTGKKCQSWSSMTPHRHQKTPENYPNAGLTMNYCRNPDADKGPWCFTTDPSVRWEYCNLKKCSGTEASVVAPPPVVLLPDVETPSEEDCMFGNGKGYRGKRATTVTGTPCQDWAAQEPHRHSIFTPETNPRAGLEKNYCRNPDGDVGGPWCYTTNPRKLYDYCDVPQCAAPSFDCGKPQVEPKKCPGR

Ki (human α-thrombin) | Ki (human factor Xa) | inhibition at 12 µM (bovine α-chymotrypsin; at 12,000 nM) | inhibition at 12 µM (human leukocyte elastase; at 12,000 nM) | inhibition at 12 µM (human plasmin; at 12,000 nM) | inhibition at 12 µM (bovine trypsin; at 12,000 nM) | inhibition at 18 µM (bovine α-chymotrypsin; at 18,000 nM) | inhibition at 18 µM (human leukocyte elastase; at 18,000 nM) | inhibition at 18 µM (human plasmin; at 18,000 nM) | Ki (bovine trypsin; 37° C., pH 7.5) | SMILES
580 nM | 8700 nM | 0% | 0% | 0% | 0% | – | – | – | – | Cc1ccc(NS(=O)(=O)c2ccccc2[N+](=O)[O-])c(=O)n1CC(=O)NCCONC(=N)N [Example 71, 3-(2-Nitrophenylsulfonyl)amino-6-methyl-1-[(2-guanidinooxyethyl)aminocarbonylmethyl]-2-pyridinone trifluoroacetate]
290 nM | 1300 nM | – | – | – | – | 0% | 0% | 0% | 1600 nM | Cc1ccc(NS(=O)(=O)c2ccc3cc(Cl)ccc3c2)c(=O)n1CC(=O)NCCONC(=N)N [Example 85, 3-(6-Chloronaphthalene-2-sulfonyl)amino-6-methyl-1-[(2-guanidinooxyethyl)aminocarbonylmethyl]-2-pyridinone trifluoroacetate]
